# Results published in ChEMBL document CHEMBL3046208, “Natural and synthetic podolactones with potential use as natural herbicide models” (2000).
# Active and inactive are the calls of the source. The rule behind the calls is not given here.
# Experiments:
# Allium cepa [1] = experiment: Stimulation of germination of Allium cepa (onion) at 0.1 mM after 5 days relative to untreated control; assay type: functional
# Hordeum vulgare [2] = experiment: Stimulation of shoot length of Hordeum vulgare (barley) at 0.1 mM after 5 days relative to untreated control; assay type: functional
# Allium cepa [3] = experiment: Stimulation of shoot length of Allium cepa (onion) at 0.1 mM after 5 days relative to untreated control; assay type: functional
# Solanum lycopersicum [4] = experiment: Inhibition of shoot length of Solanum lycopersicum (tomato) at 10 uM after 5 days relative to untreated control; assay type: functional, organism-based
# Allium cepa [5] = experiment: Stimulation of root length of Allium cepa (onion) at 0.1 mM after 5 days relative to untreated control; assay type: functional
# Lepidium sativum [6] = experiment: Inhibition of root length of Lepidium sativum at 10 uM after 5 days relative to untreated control; assay type: functional, organism-based
# Lactuca sativa [7] = experiment: Inhibition of shoot length of Lactuca sativa cv. Nigra (lettuce) at 0.1 mM after 5 days relative to untreated control; assay type: functional; conditions: 120 h
# Solanum lycopersicum [8] = experiment: Stimulation of shoot length of Solanum lycopersicum (tomato) at 0.1 mM after 5 days relative to untreated control; assay type: functional
# Lactuca sativa [9] = experiment: Stimulation of root length of Lactuca sativa cv. Nigra (lettuce) at 0.1 mM after 5 days relative to untreated control; assay type: functional
# Hordeum vulgare [10] = experiment: Stimulation of root length of Hordeum vulgare (barley) at 0.1 mM after 5 days relative to untreated control; assay type: functional
# Lactuca sativa [11] = experiment: Inhibition of root length of Lactuca sativa cv. Roman (lettuce) at 0.1 mM after 5 days relative to untreated control; assay type: functional; conditions: 120 h
# Hordeum vulgare [12] = experiment: Inhibition of shoot length of Hordeum vulgare (barley) at 0.1 mM after 5 days relative to untreated control; assay type: functional; conditions: 120 h
# Triticum aestivum [13] = experiment: Inhibition of shoot length of Triticum aestivum (wheat) at 0.1 mM after 5 days relative to untreated control; assay type: functional; conditions: 120 h
# Triticum aestivum [14] = experiment: Inhibition of root length of Triticum aestivum (wheat) at 0.1 mM after 5 days relative to untreated control; assay type: functional; conditions: 120 h
# Lepidium sativum [15] = experiment: Stimulation of shoot length of Lepidium sativum at 0.1 mM after 5 days relative to untreated control; assay type: functional
# Hordeum vulgare [16] = experiment: Inhibition of germination of Hordeum vulgare (barley) at 0.1 mM after 5 days relative to untreated control; assay type: functional; conditions: 120 h
# Allium cepa [17] = experiment: Inhibition of root length of Allium cepa (onion) at 0.1 mM after 5 days relative to untreated control; assay type: functional; conditions: 120 h
# Lepidium sativum [18] = experiment: Inhibition of shoot length of Lepidium sativum at 0.1 mM after 5 days relative to untreated control; assay type: functional; conditions: 120 h
# Lepidium sativum [19] = experiment: Stimulation of root length of Lepidium sativum at 0.1 mM after 5 days relative to untreated control; assay type: functional
# Lepidium sativum [20] = experiment: Inhibition of shoot length of Lepidium sativum at 10 uM after 5 days relative to untreated control; assay type: functional, organism-based
# Triticum aestivum [21] = experiment: Stimulation of shoot length of Triticum aestivum (wheat) at 0.1 mM after 5 days relative to untreated control; assay type: functional
# Solanum lycopersicum [22] = experiment: Inhibition of root length of Solanum lycopersicum (tomato) at 0.1 mM after 5 days relative to untreated control; assay type: functional; conditions: 120 h
# Solanum lycopersicum [23] = experiment: Inhibition of germination of Solanum lycopersicum (tomato) at 0.1 mM after 5 days relative to untreated control; assay type: functional; conditions: 120 h
# Lactuca sativa [24] = experiment: Stimulation of shoot length of Lactuca sativa cv. Nigra (lettuce) at 0.1 mM after 5 days relative to untreated control; assay type: functional
# Lactuca sativa [25] = experiment: Inhibition of germination of Lactuca sativa cv. Nigra (lettuce) at 0.1 mM after 5 days relative to untreated control; assay type: functional
# Lactuca sativa [26] = experiment: Inhibition of germination of Lactuca sativa cv. Roman (lettuce) at 0.1 mM after 5 days relative to untreated control; assay type: functional; conditions: 120 h
# Lepidium sativum [27] = experiment: Stimulation of germination of Lepidium sativum at 0.1 mM after 5 days relative to untreated control; assay type: functional
# Solanum lycopersicum [28] = experiment: Inhibition of shoot length of Solanum lycopersicum (tomato) at 0.1 mM after 5 days relative to untreated control; assay type: functional; conditions: 120 h
# Solanum lycopersicum [29] = experiment: Inhibition of root length of Solanum lycopersicum (tomato) at 10 uM after 5 days relative to untreated control; assay type: functional, organism-based
# Solanum lycopersicum [30] = experiment: Stimulation of germination of Solanum lycopersicum (tomato) at 0.1 mM after 5 days relative to untreated control; assay type: functional
# Triticum aestivum [31] = experiment: Stimulation of germination of Triticum aestivum (wheat) at 0.1 mM after 5 days relative to untreated control; assay type: functional
# Solanum lycopersicum [32] = experiment: Stimulation of root length of Solanum lycopersicum (tomato) at 0.1 mM after 5 days relative to untreated control; assay type: functional
# Lactuca sativa [33] = experiment: Stimulation of germination of Lactuca sativa cv. Roman (lettuce) at 0.1 mM after 5 days relative to untreated control; assay type: functional
# Lactuca sativa [34] = experiment: Stimulation of shoot length of Lactuca sativa cv. Roman (lettuce) at 0.1 mM after 5 days relative to untreated control; assay type: functional
# Hordeum vulgare [35] = experiment: Stimulation of germination of Hordeum vulgare (barley) at 0.1 mM after 5 days relative to untreated control; assay type: functional
# Lactuca sativa [36] = experiment: Stimulation of root length of Lactuca sativa cv. Roman (lettuce) at 0.1 mM after 5 days relative to untreated control; assay type: functional
# Triticum aestivum [37] = experiment: Inhibition of germination of Triticum aestivum (wheat) at 0.1 mM after 5 days relative to untreated control; assay type: functional
# Hordeum vulgare [38] = experiment: Inhibition of root length of Hordeum vulgare (barley) at 0.1 mM after 5 days relative to untreated control; assay type: functional; conditions: 120 h
# Lactuca sativa [39] = experiment: Inhibition of root length of Lactuca sativa cv. Nigra (lettuce) at 0.1 mM after 5 days relative to untreated control; assay type: functional; conditions: 120 h
# Lactuca sativa [40] = experiment: Stimulation of germination of Lactuca sativa cv. Nigra (lettuce) at 0.1 mM after 5 days relative to untreated control; assay type: functional
# Lepidium sativum [41] = experiment: Inhibition of germination of Lepidium sativum at 10 uM after 5 days relative to untreated control; assay type: functional, organism-based
# Lepidium sativum [42] = experiment: Inhibition of germination of Lepidium sativum at 0.1 mM after 5 days relative to untreated control; assay type: functional; conditions: 120 h
# Allium cepa [43] = experiment: Inhibition of germination of Allium cepa (onion) at 0.1 mM after 5 days relative to untreated control; assay type: functional; conditions: 120 h
# Triticum aestivum [44] = experiment: Stimulation of root length of Triticum aestivum (wheat) at 0.1 mM after 5 days relative to untreated control; assay type: functional
# Solanum lycopersicum [45] = experiment: Inhibition of germination of Solanum lycopersicum (tomato) at 10 uM after 5 days relative to untreated control; assay type: functional, organism-based
# Lactuca sativa [46] = experiment: Inhibition of shoot length of Lactuca sativa cv. Roman (lettuce) at 0.1 mM after 5 days relative to untreated control; assay type: functional; conditions: 120 h
# Allium cepa [47] = experiment: Inhibition of shoot length of Allium cepa (onion) at 0.1 mM after 5 days relative to untreated control; assay type: functional; conditions: 120 h
# Lepidium sativum [48] = experiment: Inhibition of root length of Lepidium sativum at 0.1 mM after 5 days relative to untreated control; assay type: functional; conditions: 120 h
smiles,measurement,setting,value
CO[C@H]1OC(=O)C=C2C1=C[C@H]1OC(=O)[C@@]3(C)CCC[C@@]2(C)[C@@H]13,Activity,Allium cepa [1],>40%
same,Activity,Hordeum vulgare [2],>40%
same,Activity,Allium cepa [3],>40%
same,inhibition,Solanum lycopersicum [4],Active
same,Activity,Allium cepa [5],>40%
same,inhibition,Lepidium sativum [6],Active
same,inhibition at 100 µM,Lactuca sativa [7],> 40%
same,Activity,Solanum lycopersicum [8],>40%
same,Activity,Lactuca sativa [9],>40%
same,Activity,Hordeum vulgare [10],>40%
same,inhibition at 100 µM,Lactuca sativa [11],> 40%
same,inhibition at 100 µM,Hordeum vulgare [12],> 40%
same,inhibition at 100 µM,Triticum aestivum [13],> 40%
same,inhibition at 100 µM,Triticum aestivum [14],> 40%
same,Activity,Lepidium sativum [15],>40%
same,inhibition at 100 µM,Hordeum vulgare [16],> 40%
same,inhibition at 100 µM,Allium cepa [17],> 40%
same,inhibition at 100 µM,Lepidium sativum [18],> 40%
same,Activity,Lepidium sativum [19],>40%
same,inhibition,Lepidium sativum [20],Active
same,Activity,Triticum aestivum [21],>40%
same,inhibition at 100 µM,Solanum lycopersicum [22],> 40%
same,inhibition at 100 µM,Solanum lycopersicum [23],> 40%
same,Activity,Lactuca sativa [24],>40%
same,inhibition at 100 µM,Lactuca sativa [25]; 120 h,> 40%
same,inhibition at 100 µM,Lactuca sativa [26],> 40%
same,Activity,Lepidium sativum [27],20%
same,inhibition at 100 µM,Solanum lycopersicum [28],> 40%
same,inhibition,Solanum lycopersicum [29],Active
same,Activity,Solanum lycopersicum [30],>40%
same,Activity,Triticum aestivum [31],>40%
same,Activity,Solanum lycopersicum [32],>40%
same,Activity,Lactuca sativa [33],>40%
same,Activity,Lactuca sativa [34],>40%
same,Activity,Hordeum vulgare [35],>40%
same,Activity,Lactuca sativa [36],>40%
same,inhibition at 100 µM,Triticum aestivum [37]; 120 h,> 40%
same,inhibition at 100 µM,Hordeum vulgare [38],> 40%
same,inhibition at 100 µM,Lactuca sativa [39],> 40%
same,Activity,Lactuca sativa [40],>40%
same,inhibition,Lepidium sativum [41],Active
same,inhibition at 100 µM,Lepidium sativum [42],20%
same,inhibition at 100 µM,Allium cepa [43],> 40%
same,Activity,Triticum aestivum [44],>40%
same,inhibition,Solanum lycopersicum [45],Active
same,inhibition at 100 µM,Lactuca sativa [46],> 40%
same,inhibition at 100 µM,Allium cepa [47],> 40%
same,inhibition at 100 µM,Lepidium sativum [48],> 40%
C[C@@]12CCC[C@]3(C)C4=CC(=O)OCC4=C[C@@H](OC1=O)[C@@H]23,Activity,Allium cepa [1],20%
same,Activity,Hordeum vulgare [2],>40%
same,Activity,Allium cepa [3],>40%
same,inhibition,Solanum lycopersicum [4],Active
same,Activity,Allium cepa [5],>40%
same,inhibition,Lepidium sativum [6],Active
same,inhibition at 100 µM,Lactuca sativa [7],> 40%
same,Activity,Solanum lycopersicum [8],>40%
same,Activity,Lactuca sativa [9],>40%
same,Activity,Hordeum vulgare [10],>40%
same,inhibition at 100 µM,Lactuca sativa [11],> 40%
same,inhibition at 100 µM,Hordeum vulgare [12],> 40%
same,inhibition at 100 µM,Triticum aestivum [13],< 20%
same,inhibition at 100 µM,Triticum aestivum [14],20%
same,Activity,Lepidium sativum [15],>40%
same,inhibition at 100 µM,Hordeum vulgare [16],20%
same,inhibition at 100 µM,Allium cepa [17],> 40%
same,inhibition at 100 µM,Lepidium sativum [18],> 40%
same,Activity,Lepidium sativum [19],>40%
same,inhibition,Lepidium sativum [20],Active
same,Activity,Triticum aestivum [21],<20%
same,inhibition at 100 µM,Solanum lycopersicum [22],> 40%
same,inhibition at 100 µM,Solanum lycopersicum [23],> 40%
same,Activity,Lactuca sativa [24],>40%
same,inhibition,Lactuca sativa [25],inactive
same,inhibition at 100 µM,Lactuca sativa [26],20%
same,Activity,Lepidium sativum [27],>40%
same,inhibition at 100 µM,Solanum lycopersicum [28],> 40%
same,inhibition,Solanum lycopersicum [29],Active
same,Activity,Solanum lycopersicum [30],>40%
same,Activity,Triticum aestivum [31],inactive
same,Activity,Solanum lycopersicum [32],>40%
same,Activity,Lactuca sativa [33],20%
same,Activity,Lactuca sativa [34],>40%
same,Activity,Hordeum vulgare [35],20%
same,Activity,Lactuca sativa [36],>40%
same,inhibition,Triticum aestivum [37],inactive
same,inhibition at 100 µM,Hordeum vulgare [38],> 40%
same,inhibition at 100 µM,Lactuca sativa [39],> 40%
same,Activity,Lactuca sativa [40],inactive
same,inhibition,Lepidium sativum [41],Active
same,inhibition at 100 µM,Lepidium sativum [42],> 40%
same,inhibition at 100 µM,Allium cepa [43],20%
same,Activity,Triticum aestivum [44],20%
same,inhibition,Solanum lycopersicum [45],Active
same,inhibition at 100 µM,Lactuca sativa [46],> 40%
same,inhibition at 100 µM,Allium cepa [47],> 40%
same,inhibition at 100 µM,Lepidium sativum [48],> 40%
